Data from US7300925B2, “2-ethyl and 2-ethylidene-19-nor-vitamin D compounds” (Wisconsin Alumni Research Foundation, priority 2000, dated 2007).
Where “and” joins values, the source holds several entries; their conditions need not be identical. Equal entries are not always repeated.

Columns and labels:
[1] = test system: intestinal calcium transport; experiment: support of intestinal calcium transport in vitamin D-deficient rats on a low-calcium diet; format: in vivo; settings: for Ca transport S/M (mean ± SEM): vitamin D-deficient rats, low-calcium diet, 24 hours after the last dose
[2] = test system: bone calcium mobilization; experiment: bone calcium mobilization (serum Ca) in vitamin D-deficient rats on a low-calcium diet; format: in vivo; settings: for Serum Ca (mean ± SEM): vitamin D-deficient rats, low-calcium diet, 24 hours after the last dose
[3] = test system: human promyelocyte HL-60 cells; experiment: induction of differentiation of HL-60 cells into monocytes; format: cell-based; settings: compared with 1α,25-(OH)2D3; FIG. 6a, 6b
Experimental: FIG. 6a is a graph illustrating the percent HL-60 cell differentiation as a function of the concentration of the 2-ethylidene-19-nor-vitamins as compared to 1α,25-dihydroxyvitamin D3; and
FIG. 6b is a graph illustrating the percent HL-60 cell differentiation as a function of the concentration of the 2α and 2β-ethyl-19-nor-vitamins as compared to 1α,25-dihydroxyvitamin D3.
The synthesized vitamins were tested for their ability to bind the porcine intestinal vitamin D receptor. […] In the next assay, the cellular activity of the synthesized compounds was established by studying their ability to induce differentiation of human promyelocyte HL-60 cells into monocytes.

[4] = 65 pmol daily i.p. for seven days
[5] = 130 pmol daily i.p. for seven days
[6] = 260 pmol daily i.p. for seven days

Row | Compound | Ca transport S/M (mean ± SEM) [1, 4] | Ca transport S/M (mean ± SEM) [1, 5] | Serum Ca (mean ± SEM) [2, 4] | Serum Ca (mean ± SEM) [2, 5] | Ca transport S/M (mean ± SEM) [1, 6] | Serum Ca (mean ± SEM) [2, 6] | intestinal activity (in words) ([1]; rats, Table 1) | ability to mobilize calcium from bone (in words) ([2]; rats, Table 1) | ability to induce differentiation of HL-60 cells into monocytes (in words) [3] | calcemic activity in vivo in rats (in words) ([2]; overall judgement of Table 1 (intestine and bone))
1 | CC=C1C(O)CC(=CC=C2CCCC3(C)C2CCC3C(C)CCCC(C)(C)O)CC1O (stereo not drawn) [Compound 4a, 1α,25-dihydroxy-2(E)-ethylidene-19-nor-vitamin D3] | 5.0 ± 0.4 | 6.8 ± 0.4 | 4.5 ± 0.1 | 5.2 ± 0.2 |  |  |  |  |  | 
2 | CC=C1[C@H](O)CC(=C/C=C2\CCC[C@@]3(C)C2CCC3[C@@H](C)CCCC(C)(C)O)C[C@H]1O (stereo partly drawn) [Compound 5b, 2-ethylidene-19-nor-(20S)-1α,25-(OH)2D3 (Z-isomer)] | 4.3 ± 0.7 | 3.8 ± 0.3 | 4.0 ± 0.3 | 4.0 ± 0.1 |  |  |  |  |  | 
3 | CCC1C(O)CC(=CC=C2CCCC3(C)C2CCC3C(C)CCCC(C)(C)O)CC1O (stereo not drawn) [Compound 6a, 2α-ethyl-19-nor-1α,25-(OH)2D3] |  |  |  |  | 4.0 ± 0.4 | 5.1 ± 0.1 |  |  |  | 
4 | C=C1/C(=C\C=C2/CCC[C@]3(C)[C@@H]([C@H](C)CCCC(C)(C)O)CC[C@@H]23)C[C@@H](O)C[C@@H]1O [Compound 1, 1α,25-dihydroxyvitamin D3, reference compound] |  | 4.9 ± 0.7 and 5.5 ± 0.5 |  | 5.2 ± 0.2 and 5.1 ± 0.3 | 5.9 ± 0.4 and 6.0 ± 0.9 and 6.5 ± 0.9 | 5.8 ± 0.3 and 6.4 ± 0.4 and 5.8 ± 0.1 |  |  |  | 
5 | CC=C1C(O)CC(=CC=C2CCCC3(C)C2CCC3C(C)CCCC(C)(C)O)CC1O (stereo not drawn) [Compound 5a, 1α,25-dihydroxy-2(Z)-ethylidene-19-nor-vitamin D3] | 4.4 ± 0.4 | 5.7 ± 0.9 | 4.4 ± 0.2 | 4.2 ± 0.0 |  |  |  |  |  | 
6 | CCC1C(O)CC(=CC=C2CCCC3(C)C2CCC3C(C)CCCC(C)(C)O)CC1O (stereo not drawn) [Compound 7a, 2β-ethyl-19-nor-1α,25-(OH)2D3] |  |  |  |  | 3.7 ± 0.3 | 5.0 ± 0.1 |  |  |  | 
7 | CCC1C(O)CC(=CC=C2CCCC3(C)C2CCC3C(C)CCCC(C)(C)O)CC1O [Compound 6b, 2α-ethyl-19-nor-(20S)-1α,25-(OH)2D3] |  |  |  |  | 5.0 ± 0.4 | 7.0 ± 0.1 | marked intestinal activity | strong calcium mobilization response |  | 
8 | CC=C1[C@H](O)CC(=C/C=C2\CCC[C@@]3(C)C2CCC3[C@@H](C)CCCC(C)(C)O)C[C@H]1O (stereo partly drawn) [Compound 4b, 2-ethylidene-19-nor-(20S)-1α,25-(OH)2D3 (E-isomer)] | 9.0 ± 0.3 | 5.8 ± 0.8 | 8.2 ± 0.3 | 12.1 ± 0.6 |  |  |  |  | more potent than 1α,25-(OH)2D3 | especially potent
9 | CCC1C(O)CC(=CC=C2CCCC3(C)C2CCC3C(C)CCCC(C)(C)O)CC1O [Compound 7b, 2β-ethyl-19-nor-(20S)-1α,25-(OH)2D3] |  |  |  |  | 4.1 ± 0.3 | 5.6 ± 0.1 |  |  |  | 
